Results taken from US10793551B2, “Benzimidazole-indole inhibitors of Mnk1 and Mnk2” (eFFECTOR Therapeutics, Inc., priority 2017, dated 2020).

Each compound was assayed against T1, MNK (assay: MNK Biochemical Enzymatic Assay (ADP-Glo kinase assay)). Conditions: recombinant MNK1 (300 μM ATP) / MNK2 (10 μM ATP) described; table does not say which isoform; read-out: MNK Biochemical Enzymatic Assay (IC50) Potency.
T1 construct: 10 nM recombinant MNK1 (Life Technologies, PR9138A)
Method: Compounds are screened for MNK inhibition using the ADP-Glo kinase assay kit (Promega, catalogue No. V9101). All kinase reactions are performed in Reaction Buffer E (15 mM HEPES pH7.4, 20 mM NaCl, 1 mM EGTA, 10 mM MgCl2, 0.1 mg/ml BGG, and 0.02% Tween-20). Final MNK1 reactions contained 10 nM recombinant MNK1 (Life Technologies, PR9138A), 100 μM MNK substrate peptide Ac-TATKSGSTTKNR-NH2 (American Peptide Company), 300 μM ATP, and varying concentrations of the inhibitory compound of interest. Final MNK2 reactions contained 3 nM recombinant MNK2 (Life Technologies, PV5607), 50 μM MNK substrate peptide Ac-TATKSGSTTKNR-NH2 (American Peptide Company), 10 μM ATP, and varying concentrations of the inhibitory compound of interest. Final DMSO concentration in each reaction is 1%.
Kinase reactions are carried out in 96-well half-area white flat-bottom polystyrene plates in a final volume of 25 al. MNK1/2 enzymes are pre-incubated with compound and peptide substrate for 5 minutes prior to the addition of ATP. After the addition of ATP, kinase reactions are incubated at room temperature for 40 minutes. Reactions are subsequently stopped by the addition of 25 al of ADP-Glo Reagent and incubating for an additional 40 minutes. The final luminescent signal used for kinase activity readout is produced by the addition of 45 al of Kinase Detection Reagent (ADP-Glo kit, Promega) and incubating for 40 minutes. The luminescent signal is detected using a Victor 2 multilabel counter (Perkin Elmer) and the concentration of compound necessary to achieve inhibition of enzyme activity by 50% (IC50) is calculated using signals from an 8-point compound dilution series.
To this end, IC50 values of less than 1 μM are labeled as “+++”, from 1 to 10 μM are labeled as “++”, and from […] are labeled as “+”.
With `CC(C)Cc1c(C(N)=O)ccc2c1ccn2-c1ncnc(N)c1Cl` [Compound 8F, 1-(6-amino-5-chloropyrimidin-4-yl)-4-isobutyl-1H-indole-5-carboxamide] the IC50 was 10 to 100 µM. In the case of `CC(C)Cc1c(C(N)=O)ccc2c(-c3ncnc(N)c3Cl)cn(C)c12` [Compound 9F, 3-(6-amino-5-chloropyrimidin-4-yl)-7-isobutyl-1-methyl-1H-indole-6-carboxamide], the IC50 is reported as under 1 µM. In the case of `CC(C)Cc1c(C(=O)N(C)C)ccc2c1ncn2-c1ncnc(N)c1Cl` [Compound 10F, 1-(6-amino-5-chloropyrimidin-4-yl)-4-isobutyl-N,N-dimethyl-1H-benzo[d]imidazole-5-carboxamide], the IC50 is reported as 1 to 10 µM. In the case of `CC(C)Cc1c(C(=O)N(C)C)ccc2c1ncn2-c1cc(N)ncn1` [Compound 11F, 1-(6-aminopyrimidin-4-yl)-4-isobutyl-N,N-dimethyl-1H-benzo[d]imidazole-5-carboxamide], the IC50 is reported as 1 to 10 µM. Work on `CC(C)Cc1c(C(N)=O)ccc2c1cnn2-c1ncnc(N)c1Cl` [Compound 12F, 1-(6-amino-5-chloropyrimidin-4-yl)-4-isobutyl-1H-indazole-5-carboxamide] yielded an IC50 of 1 to 10 µM. In the case of `CC(C)Cc1c(C(N)=O)ccc2c1ncn2-c1ncnc(N)c1Cl` [Compound 13F, 1-(6-amino-5-chloropyrimidin-4-yl)-4-isobutyl-1H-benzo[d]imidazole-5-carboxamide], the IC50 is reported as 1 to 10 µM.
